Where two headings read alike, the source gives them in different places.
Assays:
[1] = target: T1, MtBgl3a (Thermothelomyces thermophilus, UniProt G2QDN2); experiment: p-nitrophenol release, absorbance […] nm; Michaelis-Menten fit (GraFit); assay type: biochemical
T1 construct: gene MYCTH_66804
T1 sequence (G2QDN2 18-733): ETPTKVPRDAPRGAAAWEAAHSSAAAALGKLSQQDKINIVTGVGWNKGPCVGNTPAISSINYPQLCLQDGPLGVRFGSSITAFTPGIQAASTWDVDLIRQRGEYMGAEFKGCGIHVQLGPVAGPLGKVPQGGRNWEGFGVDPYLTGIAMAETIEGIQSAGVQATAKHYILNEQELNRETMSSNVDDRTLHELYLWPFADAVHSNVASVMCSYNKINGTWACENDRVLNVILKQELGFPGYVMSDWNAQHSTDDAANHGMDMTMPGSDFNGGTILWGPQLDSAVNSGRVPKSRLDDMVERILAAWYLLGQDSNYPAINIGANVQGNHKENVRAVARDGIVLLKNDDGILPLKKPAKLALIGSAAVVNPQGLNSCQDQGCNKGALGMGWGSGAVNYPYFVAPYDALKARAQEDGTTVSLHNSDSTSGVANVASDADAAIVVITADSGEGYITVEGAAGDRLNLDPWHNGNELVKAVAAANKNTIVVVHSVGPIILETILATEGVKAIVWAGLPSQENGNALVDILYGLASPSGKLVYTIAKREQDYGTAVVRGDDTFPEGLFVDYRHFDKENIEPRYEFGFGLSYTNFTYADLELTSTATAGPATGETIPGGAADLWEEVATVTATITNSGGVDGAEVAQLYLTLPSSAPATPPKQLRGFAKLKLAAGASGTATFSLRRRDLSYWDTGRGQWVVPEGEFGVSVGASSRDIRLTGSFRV

[2] = substrate: O=[N+]([O-])c1ccc(O[C@@H]2O[C@H](CO)[C@@H](O)[C@H](O)[C@H]2O)cc1; experiment: purified protein; settings: 100 mM citrate-phosphate pH 5.0, 40 °C
[3] = competitive, substrate p-β-NPG, pH 5.0 citrate-phosphate

## O=C(O)[C@H](O)[C@@H](O)[C@H](O)[C@H](O)CO [D-gluconic acid]
[1]
  Ki: 22 ± 2 µM

## OC[C@H]1OC(O)[C@H](O)[C@@H](O)[C@@H]1O (stereo partly drawn) [D-glucose]
[1]; [3]
  Ki: 282 ± 100 µM

## OC1OC[C@@H](O)[C@H](O)[C@H]1O (stereo partly drawn) [D-xylose]
[1]; [3]
  Ki: 30 ± 5 µM

B1: MtBgl3a (Thermothelomyces thermophilus ATCC 42464) (protein)
chain: T1 sequence (G2QDN2 18-733)
[2]
  Km: 390 ± 120 µM
